ChEMBL document CHEMBL1649524, “Resistance selection studies comparing the activity of razupenem (PTZ601) to vancomycin and linezolid against eight methicillin-resistant and two methicillin-susceptible Staphylococcus aureus strains” (2009)
≈ marks a conversion by molar mass, not a printed value.

Experiments:
[1] = tested on: Staphylococcus aureus; assay: Antimicrobial activity against vancomycin-intermediate Staphylococcus aureus 555 by macrodilution method; type: functional
[2] = tested on: Staphylococcus aureus; assay: Antimicrobial activity against vancomycin-resistant Staphylococcus aureus 510 by macrodilution method; type: functional
[3] = tested on: Staphylococcus aureus; assay: Antimicrobial activity against vancomycin-resistant Staphylococcus aureus 509 by macrodilution method; type: functional
[4] = tested on: Staphylococcus aureus; assay: Antimicrobial activity against heterogeneous vancomycin-intermediate Staphylococcus aureus 168 after 50 passages by macrodilution method; type: functional
[5] = tested on: Staphylococcus aureus; assay: Antimicrobial activity against vancomycin-intermediate Staphylococcus aureus 1287 after 50 passages by macrodilution method; type: functional
[6] = tested on: Staphylococcus aureus; assay: Antimicrobial activity against methicillin-resistant Staphylococcus aureus 525 after 50 passages by macrodilution method; type: functional
[7] = tested on: Staphylococcus aureus; assay: Antimicrobial activity against methicillin-susceptible Staphylococcus aureus 540 after 50 passages by macrodilution method
[8] = tested on: Staphylococcus aureus; assay: Antimicrobial activity against methicillin-susceptible Staphylococcus aureus 543 after 50 passages by macrodilution method; type: functional
[9] = tested on: Staphylococcus aureus; assay: Antimicrobial activity against vancomycin-resistant Staphylococcus aureus 510 after 50 passages by macrodilution method; type: functional
[10] = tested on: Staphylococcus aureus; assay: Antimicrobial activity against vancomycin-resistant Staphylococcus aureus 509 measured after 10 antibiotic-free subculturing by macrodilution method; type: functional
[11] = tested on: Staphylococcus aureus; assay: Antimicrobial activity against vancomycin-intermediate Staphylococcus aureus 555 measured on day 5 by macrodilution method; type: functional; settings: Staphylococcus aureus, 555, 120 h
[12] = tested on: Staphylococcus aureus; assay: Antimicrobial activity against vancomycin-intermediate Staphylococcus aureus 555 measured on day 10 by macrodilution method; type: functional; settings: Staphylococcus aureus, 555, 240 h
[13] = tested on: Staphylococcus aureus; assay: Antimicrobial activity against vancomycin-intermediate Staphylococcus aureus 555 measured on day 15 by macrodilution method; type: functional; settings: Staphylococcus aureus, 555, 360 h
[14] = tested on: Staphylococcus aureus; assay: Antimicrobial activity against vancomycin-intermediate Staphylococcus aureus 1287 measured on day 15 by macrodilution method; type: functional; settings: Staphylococcus aureus, 1287, 360 h
[15] = tested on: Staphylococcus aureus; assay: Antimicrobial activity against methicillin-susceptible Staphylococcus aureus 540 measured on day 15 by macrodilution method; type: functional; settings: Staphylococcus aureus, 540, 360 h
[16] = tested on: Staphylococcus aureus; assay: Antimicrobial activity against methicillin-susceptible Staphylococcus aureus 543 measured on day 15 by macrodilution method; type: functional; settings: Staphylococcus aureus, 543, 360 h
[17] = tested on: Staphylococcus aureus; assay: Antimicrobial activity against heterogeneous vancomycin-intermediate Staphylococcus aureus 168 measured on day 20 by macrodilution method; type: functional; settings: Staphylococcus aureus, 168, 480 h
[18] = tested on: Staphylococcus aureus; assay: Antimicrobial activity against vancomycin-intermediate Staphylococcus aureus 555 measured on day 20 by macrodilution method; type: functional; settings: Staphylococcus aureus, 555, 480 h
[19] = tested on: Staphylococcus aureus; assay: Antimicrobial activity against methicillin-resistant Staphylococcus aureus 525 measured on day 20 by macrodilution method; type: functional; settings: Staphylococcus aureus, 525, 480 h
[20] = tested on: Staphylococcus aureus; assay: Antimicrobial activity against methicillin-susceptible Staphylococcus aureus 540 measured on day 20 by macrodilution method; type: functional; settings: Staphylococcus aureus, 540, 480 h
[21] = tested on: Staphylococcus aureus; assay: Antimicrobial activity against methicillin-susceptible Staphylococcus aureus 543 measured on day 20 by macrodilution method; type: functional; settings: Staphylococcus aureus, 543, 480 h
[22] = tested on: Staphylococcus aureus; assay: Antimicrobial activity against heterogeneous vancomycin-intermediate Staphylococcus aureus 168 measured on day 25 by macrodilution method; type: functional; settings: Staphylococcus aureus, 168, 600 h
[23] = tested on: Staphylococcus aureus; assay: Antimicrobial activity against vancomycin-intermediate Staphylococcus aureus 555 measured on day 25 by macrodilution method; type: functional; settings: Staphylococcus aureus, 555, 600 h
[24] = tested on: Staphylococcus aureus; assay: Antimicrobial activity against methicillin-resistant Staphylococcus aureus 547 measured on day 25 by macrodilution method; type: functional; settings: Staphylococcus aureus, 547, 600 h
[25] = tested on: Staphylococcus aureus; assay: Antimicrobial activity against methicillin-susceptible Staphylococcus aureus 540 measured on day 25 by macrodilution method; type: functional; settings: Staphylococcus aureus, 540, 600 h
[26] = tested on: Staphylococcus aureus; assay: Antimicrobial activity against methicillin-susceptible Staphylococcus aureus 543 measured on day 25 by macrodilution method; type: functional; settings: Staphylococcus aureus, 543, 600 h
[27] = tested on: Staphylococcus aureus; assay: Antimicrobial activity against heterogeneous vancomycin-intermediate Staphylococcus aureus 873 measured on day 30 by macrodilution method; type: functional
[28] = tested on: Staphylococcus aureus; assay: Antimicrobial activity against vancomycin-intermediate Staphylococcus aureus 555 measured on day 30 by macrodilution method; type: functional
[29] = tested on: Staphylococcus aureus; assay: Antimicrobial activity against methicillin-resistant Staphylococcus aureus 525 measured on day 30 by macrodilution method; type: functional
[30] = tested on: Staphylococcus aureus; assay: Antimicrobial activity against methicillin-resistant Staphylococcus aureus 547 measured on day 30 by macrodilution method; type: functional
[31] = tested on: Staphylococcus aureus; assay: Antimicrobial activity against methicillin-susceptible Staphylococcus aureus 540 measured on day 30 by macrodilution method; type: functional
[32] = tested on: Staphylococcus aureus; assay: Antimicrobial activity against methicillin-susceptible Staphylococcus aureus 543 measured on day 30 by macrodilution method; type: functional
[33] = tested on: Staphylococcus aureus; assay: Antimicrobial activity against heterogeneous vancomycin-intermediate Staphylococcus aureus 168 measured on day 35 by macrodilution method; type: functional
[34] = tested on: Staphylococcus aureus; assay: Antimicrobial activity against vancomycin-intermediate Staphylococcus aureus 555 measured on day 35 by macrodilution method; type: functional
[35] = tested on: Staphylococcus aureus; assay: Antimicrobial activity against methicillin-resistant Staphylococcus aureus 525 measured on day 35 by macrodilution method; type: functional
[36] = tested on: Staphylococcus aureus; assay: Antimicrobial activity against methicillin-resistant Staphylococcus aureus 547 measured on day 35 by macrodilution method; type: functional
[37] = tested on: Staphylococcus aureus; assay: Antimicrobial activity against methicillin-susceptible Staphylococcus aureus 540 measured on day 35 by macrodilution method; type: functional
[38] = tested on: Staphylococcus aureus; assay: Antimicrobial activity against methicillin-susceptible Staphylococcus aureus 543 measured on day 35 by macrodilution method; type: functional
[39] = tested on: Staphylococcus aureus; assay: Antimicrobial activity against heterogeneous vancomycin-intermediate Staphylococcus aureus 168 measured on day 40 by macrodilution method; type: functional
[40] = tested on: Staphylococcus aureus; assay: Antimicrobial activity against vancomycin-intermediate Staphylococcus aureus 555 measured on day 40 by macrodilution method; type: functional
[41] = tested on: Staphylococcus aureus; assay: Antimicrobial activity against methicillin-resistant Staphylococcus aureus 525 measured on day 40 by macrodilution method; type: functional
[42] = tested on: Staphylococcus aureus; assay: Antimicrobial activity against methicillin-susceptible Staphylococcus aureus 540 measured on day 40 by macrodilution method; type: functional
[43] = tested on: Staphylococcus aureus; assay: Antimicrobial activity against heterogeneous vancomycin-intermediate Staphylococcus aureus 168 measured on day 45 by macrodilution method; type: functional
[44] = tested on: Staphylococcus aureus; assay: Antimicrobial activity against vancomycin-intermediate Staphylococcus aureus 555 measured on day 45 by macrodilution method; type: functional
[45] = tested on: Staphylococcus aureus; assay: Antimicrobial activity against vancomycin-intermediate Staphylococcus aureus 1287 measured on day 45 by macrodilution method; type: functional
[46] = tested on: Staphylococcus aureus; assay: Antimicrobial activity against methicillin-resistant Staphylococcus aureus 525 measured on day 45 by macrodilution method; type: functional
[47] = tested on: Staphylococcus aureus; assay: Antimicrobial activity against methicillin-susceptible Staphylococcus aureus 540 measured on day 45 by macrodilution method; type: functional
[48] = tested on: Staphylococcus aureus; assay: Antimicrobial activity against methicillin-susceptible Staphylococcus aureus 543 measured on day 45 by macrodilution method; type: functional
[49] = tested on: Staphylococcus aureus; assay: Antimicrobial activity against heterogeneous vancomycin-intermediate Staphylococcus aureus 168 measured on day 50 by macrodilution method; type: functional
[50] = tested on: Staphylococcus aureus; assay: Antimicrobial activity against vancomycin-intermediate Staphylococcus aureus 555 measured on day 50 by macrodilution method; type: functional
[51] = tested on: Staphylococcus aureus; assay: Antimicrobial activity against vancomycin-intermediate Staphylococcus aureus 1287 measured on day 50 by macrodilution method; type: functional
[52] = tested on: Staphylococcus aureus; assay: Antimicrobial activity against methicillin-resistant Staphylococcus aureus 525 measured on day 50 by macrodilution method; type: functional
[53] = tested on: Staphylococcus aureus; assay: Antimicrobial activity against methicillin-resistant Staphylococcus aureus 547 measured on day 50 by macrodilution method; type: functional
[54] = tested on: Staphylococcus aureus; assay: Antimicrobial activity against methicillin-susceptible Staphylococcus aureus 540 measured on day 50 by macrodilution method; type: functional
[55] = tested on: Staphylococcus aureus; assay: Antimicrobial activity against methicillin-susceptible Staphylococcus aureus 543 measured on day 50 by macrodilution method; type: functional
[56] = tested on: Staphylococcus aureus; assay: microbe, parasite or virus in culture; settings: 555
Description: Antimicrobial activity against vancomycin-intermediate Staphylococcus aureus 555 after 50 passages by macrodilution method

[57] = tested on: Staphylococcus aureus; assay: microbe, parasite or virus in culture; settings: 547
Description: Antimicrobial activity against methicillin-resistant Staphylococcus aureus 547 after 50 passages by macrodilution method

CN[C@H](CC(C)C)C(=O)N[C@H]1C(=O)N[C@@H](CC(N)=O)C(=O)N[C@H]2C(=O)N[C@H]3C(=O)N[C@H](C(=O)N[C@H](C(=O)O)c4cc(O)cc(O)c4-c4cc3ccc4O)[C@H](O)c3ccc(c(Cl)c3)Oc3cc2cc(c3O[C@@H]2O[C@H](CO)[C@@H](O)[C@H](O)[C@H]2O[C@H]2C[C@](C)(N)[C@H](O)[C@H](C)O2)Oc2ccc(cc2Cl)[C@H]1O [VANCOMYCIN]
MIC [1]: 8 µg/mL (≈ 5.52 µM) | MIC [2]: 64 µg/mL (≈ 44.2 µM) | MIC [3]: > 64 µg/mL | MIC [4]: 8 µg/mL (≈ 5.52 µM) | MIC [5]: 8 µg/mL (≈ 5.52 µM) | MIC [6]: 8 µg/mL (≈ 5.52 µM) | MIC [7]: 8 µg/mL (≈ 5.52 µM) | MIC [8]: 8 µg/mL (≈ 5.52 µM) | MIC [9]: ≥ 64 µg/mL | MIC [10]: > 64 µg/mL | MIC [11]: 8 µg/mL (≈ 5.52 µM) | MIC [12]: 8 µg/mL (≈ 5.52 µM) | MIC [13]: 8 µg/mL (≈ 5.52 µM) | MIC [14]: 8 µg/mL (≈ 5.52 µM) | MIC [15]: 8 µg/mL (≈ 5.52 µM) | MIC [16]: 8 µg/mL (≈ 5.52 µM) | MIC [17]: 8 µg/mL (≈ 5.52 µM) | MIC [18]: 8 µg/mL (≈ 5.52 µM) | MIC [19]: 8 µg/mL (≈ 5.52 µM) | MIC [20]: 8 µg/mL (≈ 5.52 µM) | MIC [21]: 8 µg/mL (≈ 5.52 µM) | MIC [22]: 8 µg/mL (≈ 5.52 µM) | MIC [23]: 8 µg/mL (≈ 5.52 µM) | MIC [24]: 8 µg/mL (≈ 5.52 µM) | MIC [25]: 8 µg/mL (≈ 5.52 µM) | MIC [26]: 8 µg/mL (≈ 5.52 µM) | MIC [27]: 8 µg/mL (≈ 5.52 µM) | MIC [28]: 16 µg/mL (≈ 11 µM) | MIC [29]: 0.06 µg/mL (≈ 0.0414 µM) | MIC [30]: 16 µg/mL (≈ 11 µM) | MIC [31]: 8 µg/mL (≈ 5.52 µM) | MIC [32]: 8 µg/mL (≈ 5.52 µM) | MIC [33]: 8 µg/mL (≈ 5.52 µM) | MIC [34]: 32 µg/mL (≈ 22.1 µM) | MIC [35]: 8 µg/mL (≈ 5.52 µM) | MIC [36]: 8 µg/mL (≈ 5.52 µM) | MIC [37]: 8 µg/mL (≈ 5.52 µM) | MIC [38]: 8 µg/mL (≈ 5.52 µM) | MIC [39]: 8 µg/mL (≈ 5.52 µM) | MIC [40]: 32 µg/mL (≈ 22.1 µM) | MIC [41]: 16 µg/mL (≈ 11 µM) | MIC [42]: 32 µg/mL (≈ 22.1 µM) | MIC [43]: 8 µg/mL (≈ 5.52 µM) | MIC [44]: 32 µg/mL (≈ 22.1 µM) | MIC [45]: 8 µg/mL (≈ 5.52 µM) | MIC [46]: 8 µg/mL (≈ 5.52 µM) | MIC [47]: 16 µg/mL (≈ 11 µM) | MIC [48]: 8 µg/mL (≈ 5.52 µM) | MIC [49]: 8 µg/mL (≈ 5.52 µM) | MIC [50]: 8 µg/mL (≈ 5.52 µM) | MIC [51]: 8 µg/mL (≈ 5.52 µM) | MIC [52]: 8 µg/mL (≈ 5.52 µM) | MIC [53]: 8 µg/mL (≈ 5.52 µM) | MIC [54]: 8 µg/mL (≈ 5.52 µM) | MIC [55]: 8 µg/mL (≈ 5.52 µM) | MIC [56]: 8 µg/mL (≈ 5.52 µM) | MIC [57]: 8 µg/mL (≈ 5.52 µM)
